Measured values as given in the NIST ThermoML archive (doi:10.1021/je901026b).
± gives the expanded uncertainty stated by the source.

Assays:
[1] = Liquid; for mass density: 298.15 K, 101.33 kPa; for vapor or sublimation pressure: Ebulliometric method (Recirculating still)
[2] = refractive index (Na D-line) (dimensionless); settings: 293.15 K; 101.33 kPa; Liquid; Standard Abbe refractometry

Row | mass density [1] [kg/m3] | vapor or sublimation pressure ([1]; 318.13 K) [kPa] | vapor or sublimation pressure ([1]; 328.2 K) [kPa] | vapor or sublimation pressure ([1]; 338.28 K) [kPa] | vapor or sublimation pressure ([1]; 328.15 K) [kPa] | vapor or sublimation pressure ([1]; 338.15 K) [kPa] | refractive index [2] | Compound
1 | 780.44 ± 0.64 | 17.95 ± 0.12 | 30.35 ± 0.17 | 48.93 ± 0.24 |  |  |  | CC(C)(C)O [2-methylpropan-2-ol]
2 | 687.8 ± 1.3 | 15.85 ± 0.11 |  |  | 23.68 ± 0.14 | 34.4 ± 0.19 | 1.38894 ± 0.00045 | CC(C)CC(C)(C)C [2,2,4-trimethylpentane]
3 | 765.85 ± 0.66 | 23.96 ± 0.14 | 35.45 ± 0.19 | 51.05 ± 0.25 | 35.45 ± 0.19 | 51.05 ± 0.25 | 1.38614 ± 0.00041 | CCC(C)(C)OC [2-methoxy-2-methylbutane]
